ChEMBL document CHEMBL5291721, “A preclinical secondary pharmacology resource illuminates target-adverse drug reaction associations of marketed drugs” (Nat Commun, 2023)

Tests used:
[1] = target: T1, Muscarinic acetylcholine receptor M2 (Homo sapiens, UniProt P08172)
T1 sequence (P08172 whole entry): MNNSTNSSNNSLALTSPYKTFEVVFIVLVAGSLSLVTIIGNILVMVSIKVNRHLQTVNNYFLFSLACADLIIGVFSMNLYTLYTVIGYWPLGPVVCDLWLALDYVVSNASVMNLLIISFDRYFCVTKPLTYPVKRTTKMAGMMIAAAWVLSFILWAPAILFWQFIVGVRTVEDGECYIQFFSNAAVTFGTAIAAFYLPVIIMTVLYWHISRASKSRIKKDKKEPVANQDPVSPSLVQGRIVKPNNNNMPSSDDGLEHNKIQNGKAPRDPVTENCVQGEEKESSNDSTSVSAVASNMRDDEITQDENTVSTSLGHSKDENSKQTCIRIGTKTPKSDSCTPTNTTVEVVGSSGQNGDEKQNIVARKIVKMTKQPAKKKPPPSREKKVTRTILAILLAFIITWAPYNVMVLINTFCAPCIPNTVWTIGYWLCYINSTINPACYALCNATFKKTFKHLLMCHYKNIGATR

Adenosine receptor A3 = target: T2, Adenosine receptor A3 (Homo sapiens, UniProt P0DMS8)
T2 sequence (P0DMS8 whole entry): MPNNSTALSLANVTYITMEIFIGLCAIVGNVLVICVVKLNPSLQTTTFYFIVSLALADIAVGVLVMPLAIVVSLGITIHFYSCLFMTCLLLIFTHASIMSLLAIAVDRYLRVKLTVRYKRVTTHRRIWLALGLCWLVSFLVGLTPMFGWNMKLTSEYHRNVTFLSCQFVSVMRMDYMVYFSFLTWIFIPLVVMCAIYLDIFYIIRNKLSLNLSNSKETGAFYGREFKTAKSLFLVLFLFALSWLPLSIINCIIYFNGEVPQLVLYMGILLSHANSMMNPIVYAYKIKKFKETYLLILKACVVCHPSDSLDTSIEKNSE

[2] = target: T1, Muscarinic acetylcholine receptor M2; assay type: functional, cell-based
[3] = target: 5-hydroxytryptamine receptor 2B (Homo sapiens, UniProt P41595); assay type: functional, cell-based
Chain of 5-hydroxytryptamine receptor 2B (P41595 whole entry): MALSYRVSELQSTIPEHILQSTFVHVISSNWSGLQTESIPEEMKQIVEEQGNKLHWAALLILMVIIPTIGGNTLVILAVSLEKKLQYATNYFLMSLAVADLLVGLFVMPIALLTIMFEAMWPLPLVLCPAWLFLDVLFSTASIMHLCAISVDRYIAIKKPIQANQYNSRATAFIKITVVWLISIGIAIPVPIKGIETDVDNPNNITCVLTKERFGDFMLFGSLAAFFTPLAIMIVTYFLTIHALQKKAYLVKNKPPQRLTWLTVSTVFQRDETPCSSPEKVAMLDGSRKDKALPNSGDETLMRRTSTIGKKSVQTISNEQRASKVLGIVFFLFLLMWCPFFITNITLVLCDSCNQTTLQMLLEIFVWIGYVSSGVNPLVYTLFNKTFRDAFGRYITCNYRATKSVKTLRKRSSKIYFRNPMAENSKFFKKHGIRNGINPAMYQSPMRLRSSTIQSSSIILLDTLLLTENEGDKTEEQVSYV

D(1A) dopamine receptor = D(1A) dopamine receptor (Homo sapiens, UniProt P21728); assay type: functional, cell-based
Chain of D(1A) dopamine receptor (P21728 whole entry): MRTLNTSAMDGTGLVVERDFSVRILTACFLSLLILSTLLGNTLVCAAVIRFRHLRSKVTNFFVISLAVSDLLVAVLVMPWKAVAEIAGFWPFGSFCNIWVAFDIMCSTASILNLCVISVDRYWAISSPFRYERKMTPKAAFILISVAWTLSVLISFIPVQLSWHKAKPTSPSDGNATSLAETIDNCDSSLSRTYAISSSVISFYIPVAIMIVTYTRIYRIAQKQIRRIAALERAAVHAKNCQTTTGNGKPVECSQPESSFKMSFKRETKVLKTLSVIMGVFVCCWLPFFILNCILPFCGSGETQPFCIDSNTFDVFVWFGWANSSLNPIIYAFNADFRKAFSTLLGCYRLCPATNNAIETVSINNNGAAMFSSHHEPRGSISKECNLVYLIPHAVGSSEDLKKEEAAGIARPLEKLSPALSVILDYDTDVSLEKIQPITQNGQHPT

[4] = target: T3, 5-hydroxytryptamine receptor 3A (Homo sapiens, UniProt P46098); assay type: functional
T3 sequence (P46098 whole entry): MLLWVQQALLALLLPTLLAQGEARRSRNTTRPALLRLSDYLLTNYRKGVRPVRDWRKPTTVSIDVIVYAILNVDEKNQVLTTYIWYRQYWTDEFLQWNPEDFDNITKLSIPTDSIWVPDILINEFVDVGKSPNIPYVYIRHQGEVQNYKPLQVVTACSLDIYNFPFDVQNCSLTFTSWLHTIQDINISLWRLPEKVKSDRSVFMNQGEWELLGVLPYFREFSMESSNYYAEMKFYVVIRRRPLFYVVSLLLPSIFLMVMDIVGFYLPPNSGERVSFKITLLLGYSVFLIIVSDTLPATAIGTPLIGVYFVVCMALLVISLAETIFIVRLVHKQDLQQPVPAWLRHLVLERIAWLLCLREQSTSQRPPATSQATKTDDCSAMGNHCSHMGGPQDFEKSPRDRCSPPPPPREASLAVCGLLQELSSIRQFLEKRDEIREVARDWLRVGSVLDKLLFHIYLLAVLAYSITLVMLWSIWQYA

[5] = target: Delta-type opioid receptor (Homo sapiens, UniProt P41143)
Chain of Delta-type opioid receptor (P41143 whole entry): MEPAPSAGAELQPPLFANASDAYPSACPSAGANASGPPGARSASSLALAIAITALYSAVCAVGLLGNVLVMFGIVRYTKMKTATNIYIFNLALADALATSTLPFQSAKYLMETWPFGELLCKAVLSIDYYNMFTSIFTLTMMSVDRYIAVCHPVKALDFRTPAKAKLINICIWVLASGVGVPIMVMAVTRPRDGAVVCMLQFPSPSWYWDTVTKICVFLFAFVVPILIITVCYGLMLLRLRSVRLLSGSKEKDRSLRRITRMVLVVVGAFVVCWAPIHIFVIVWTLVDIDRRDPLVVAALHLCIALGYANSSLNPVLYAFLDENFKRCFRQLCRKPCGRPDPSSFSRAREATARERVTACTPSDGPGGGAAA

[6] = target: T4, 5-hydroxytryptamine receptor 1A (Homo sapiens, UniProt P08908); assay type: functional, cell-based
T4 sequence (P08908 whole entry): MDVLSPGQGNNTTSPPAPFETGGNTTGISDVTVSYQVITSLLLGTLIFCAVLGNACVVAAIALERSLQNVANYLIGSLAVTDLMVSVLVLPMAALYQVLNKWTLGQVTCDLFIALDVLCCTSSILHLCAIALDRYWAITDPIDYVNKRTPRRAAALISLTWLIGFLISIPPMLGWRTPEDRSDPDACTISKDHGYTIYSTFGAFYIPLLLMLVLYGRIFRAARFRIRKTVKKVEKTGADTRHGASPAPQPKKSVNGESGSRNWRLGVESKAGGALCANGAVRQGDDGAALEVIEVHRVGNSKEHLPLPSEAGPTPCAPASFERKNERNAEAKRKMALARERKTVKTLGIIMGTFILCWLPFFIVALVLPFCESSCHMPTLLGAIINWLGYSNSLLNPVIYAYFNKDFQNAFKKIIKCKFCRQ

[7] = target: T5, Alpha-2A adrenergic receptor (Homo sapiens, UniProt P08913); assay type: functional, cell-based
T5 sequence (P08913 whole entry): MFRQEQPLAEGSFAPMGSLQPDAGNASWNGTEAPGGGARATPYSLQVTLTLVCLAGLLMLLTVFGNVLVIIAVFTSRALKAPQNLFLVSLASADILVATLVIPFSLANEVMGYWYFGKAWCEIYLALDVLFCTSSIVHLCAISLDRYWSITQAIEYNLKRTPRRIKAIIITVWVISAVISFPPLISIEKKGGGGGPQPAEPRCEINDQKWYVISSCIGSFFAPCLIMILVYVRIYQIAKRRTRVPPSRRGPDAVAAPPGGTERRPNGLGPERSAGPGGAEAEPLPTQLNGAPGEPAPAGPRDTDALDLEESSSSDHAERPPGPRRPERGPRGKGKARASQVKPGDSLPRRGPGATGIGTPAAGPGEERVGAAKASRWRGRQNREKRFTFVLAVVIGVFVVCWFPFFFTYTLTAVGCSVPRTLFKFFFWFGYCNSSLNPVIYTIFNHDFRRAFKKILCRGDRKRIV

Cannabinoid receptor 1 [8] = target: T6, Cannabinoid receptor 1 (Homo sapiens, UniProt P21554); assay type: functional, cell-based
T6 sequence (P21554 whole entry): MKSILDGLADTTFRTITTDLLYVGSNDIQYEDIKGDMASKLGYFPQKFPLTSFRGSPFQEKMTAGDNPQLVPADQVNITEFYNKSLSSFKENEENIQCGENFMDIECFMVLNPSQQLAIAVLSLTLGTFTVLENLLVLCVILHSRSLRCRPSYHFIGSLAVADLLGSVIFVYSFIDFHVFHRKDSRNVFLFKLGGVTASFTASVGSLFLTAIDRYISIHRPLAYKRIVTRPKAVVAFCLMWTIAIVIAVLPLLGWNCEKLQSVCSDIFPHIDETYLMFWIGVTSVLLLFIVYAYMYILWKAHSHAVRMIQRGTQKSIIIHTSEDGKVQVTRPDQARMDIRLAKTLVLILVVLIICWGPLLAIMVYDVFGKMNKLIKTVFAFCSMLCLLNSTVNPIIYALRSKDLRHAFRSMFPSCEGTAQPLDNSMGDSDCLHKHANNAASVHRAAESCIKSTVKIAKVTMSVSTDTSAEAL

Cannabinoid receptor 1 [9] = target: T6, Cannabinoid receptor 1; assay type: functional, cell-based; remark: listed apart in the source
Also: assay procedure not described here.

Row | Compound | AC50 [1] | further results
1 | CCC1(c2cccc(O)c2)CCCCN(C)C1 (stereo not given) [MEPTAZINOL] | 20.9 µM | 
2 | O=[N+]([O-])c1cncn1CCN1CCOCC1 [NIMORAZOLE] | > 30 µM | 
3 | CCC1C(C)=NN=C(c2ccc(OC)c(OC)c2)c2cc(OC)c(OC)cc21 (stereo not given) [TOFISOPAM] | > 30 µM | 
4 | CCOC(=O)CC(SP(=S)(OC)OC)C(=O)OCC (stereo not given) [MALATHION] | > 30 µM | 
5 | COc1ccc2c(c1)OC(C)(C)C(c1ccccc1)C2c1ccc(OCCN2CCCC2)cc1 (stereo not given) [ORMELOXIFENE] | 9.13 µM | 
6 | CC[C@@H]1/C=C(\C)C[C@H](C)C[C@H](OC)[C@H]2O[C@@](O)(C(=O)C(=O)N3CCCC[C@H]3C(=O)O[C@H](/C(C)=C/[C@@H]3CC[C@H](Cl)[C@H](OC)C3)[C@H](C)[C@@H](O)CC1=O)[C@H](C)C[C@@H]2OC [PIMECROLIMUS] | > 30 µM | 
7 | CC(C(=O)O)c1ccc2c(c1)Cc1cccnc1O2 (stereo not given) [PRANOPROFEN] | > 30 µM | 
8 | COc1cc2c(cc1OC)[C@H]1C[C@@H](OC(=O)[C@@H](N)C(C)C)[C@H](CC(C)C)CN1CC2 [VALBENAZINE] | > 30 µM | 
9 | CCO[C@@H](Cc1ccc(OCCn2c(C)ccc2-c2ccc(SC)cc2)cc1)C(=O)O [SAROGLITAZAR] | > 30 µM | 
10 | CCS(=O)(=O)N1CC(CC#N)(n2cc(-c3ncnc4[nH]ccc34)cn2)C1 [BARICITINIB] | > 30 µM | 
11 | CCC(Cc1c(I)cc(I)c(N)c1I)C(=O)O (stereo not given) [IOPANOIC ACID] | > 30 µM | 
12 | COc1cc(NCc2ccc3nc(N)nc(N)c3c2C)cc(OC)c1OC [TRIMETREXATE] | 3.6 µM | 
13 | Nc1nc(-n2cc(C(=O)O)c(=O)c3cc(F)c(N4CC(O)C4)c(Cl)c32)c(F)cc1F [DELAFLOXACIN] | > 30 µM | 
14 | CC(=O)OC(C)C[N+](C)(C)C (stereo not given) [METHACHOLINE] | 2.22 µM | 
15 | CN1CCC2=C(C1)c1ccccc1Cc1ccccc12 [SETIPTILINE] | 0.855 µM | 
16 | O=C1CN=C(c2ccccc2)c2c(sc3c2CCCC3)N1 [BENTAZEPAM] | > 30 µM | 
17 | O=C(O)c1cccc(-c2noc(-c3ccccc3F)n2)c1 | > 30 µM | AC50 (Adenosine receptor A3): > 30 µM; AC50 [2]: > 10 µM
18 | CN1CCN(C(c2ccccc2)c2ccccc2)CC1 [CYCLIZINE] | 0.334 µM | 
19 | CCCCN(CCCC)CCCOC(=O)c1ccc(N)cc1 [BUTACAINE] | 16.3 µM | 
20 | CCOC(=O)C(c1c(O)c2ccccc2oc1=O)c1c(O)c2ccccc2oc1=O [ETHYL BISCOUMACETATE] | > 30 µM | 
21 | C[C@@H]1C[C@H]2[C@@H]3C[C@H](F)C4=CC(=O)C=C[C@]4(C)[C@@]3(F)[C@@H](O)C[C@]2(C)[C@@]1(O)C(=O)COC(=O)C(C)(C)C [FLUMETHASONE PIVALATE] | > 30 µM | 
22 | CCOc1ccc(/C=C2\NCCc3cc(OCC)c(OCC)cc32)cc1OCC [DROTAVERINE] | 28.4 µM | 
23 | O=C(O)CCn1c2c(c3ccccc31)C[C@H](NS(=O)(=O)c1ccc(F)cc1)CC2 [RAMATROBAN] | > 30 µM | AC50 [3]: > 10 µM; AC50 (Adenosine receptor A3): > 30 µM; AC50 (D(1A) dopamine receptor): > 30 µM; AC50 [4]: > 30 µM; AC50 [2]: > 10 µM; AC50 [5]: > 30 µM; AC50 [6]: > 10 µM; AC50 [7]: > 10 µM
24 | NS(=O)(=O)c1cc2c(cc1Cl)NC(CC1CCCC1)NS2(=O)=O (stereo not given) [CYCLOPENTHIAZIDE] | > 30 µM | AC50 [3]: > 30 µM; AC50 (Cannabinoid receptor 1 [8]): > 30 µM; AC50 (D(1A) dopamine receptor): > 30 µM; AC50 [4]: > 30 µM; AC50 [5]: > 30 µM; AC50 [6]: > 30 µM; AC50 [7]: > 30 µM; AC50 (Cannabinoid receptor 1 [9]): > 30 µM

Row | Compound | AC50 [1] | further results
25 | NC(=O)c1cccc2cn(-c3ccc([C@@H]4CCCNC4)cc3)nc12 [NIRAPARIB] | 14.4 µM | 
26 | O=C1NCC2(CCN(CCc3ccccc3)CC2)O1 [FENSPIRIDE] | 16.4 µM | 
27 | CCN(CC)CCNc1ccc(C)c2sc3ccccc3c(=O)c12 [LUCANTHONE] | 2.36 µM | 
28 | CC(C)=CCC1C(=O)N(c2ccccc2)N(c2ccccc2)C1=O [FEPRAZONE] | > 30 µM | 
29 | CC(=O)O[C@]1(C(C)=O)CC[C@H]2[C@@H]3C[C@H](C)C4=CC(=O)CC[C@]4(C)[C@H]3CC[C@@]21C [MEDROXYPROGESTERONE ACETATE] | 21.2 µM | AC50 (Adenosine receptor A3): > 30 µM
30 | CC/C=C\C/C=C\C/C=C\C/C=C\C/C=C\CCCC(=O)O [ICOSAPENT] | > 30 µM | 
31 | O=C(O)CCCN1CCC(O[C@@H](c2ccc(Cl)cc2)c2ccccn2)CC1 [BEPOTASTINE] | > 30 µM | 
32 | O=C(c1ccc(F)c(F)c1Nc1ccc(I)cc1F)N1CC(O)([C@@H]2CCCCN2)C1 [COBIMETINIB] | 13.8 µM | 
33 | Oc1c(I)cc(I)c2cccnc12 [IODOQUINOL] | > 10 µM | 
34 | Nc1ccc(C(=O)O)cc1 [AMINOBENZOIC ACID] | > 30 µM | 
35 | NCc1ccccc1CC(=O)N[C@@H]1C(=O)N2C(C(=O)O)=C(CSc3nnnn3CC(=O)O)CS[C@H]12 [CEFORANIDE] | > 30 µM | 
36 | CO[C@@]12[C@H](COC(N)=O)C3=C(C(=O)C(C)=C(N)C3=O)N1C[C@@H]1N[C@@H]12 [MITOMYCIN] | > 30 µM | 
37 | Cc1c(O)cccc1C(=O)N[C@@H](CSc1ccccc1)[C@H](O)CN1C[C@H]2CCCC[C@H]2C[C@H]1C(=O)NC(C)(C)C | > 30 µM | 
38 | Oc1cccc2cccnc12 [OXYQUINOLINE] | > 30 µM | 
39 | CCCC1C(=O)N2C(N(C)C)=Nc3ccc(C)cc3N2C1=O (stereo not given) [APAZONE] | > 30 µM | 
40 | C[C@@H]1C[C@H]2[C@@H]3C[C@H](F)C4=CC(=O)C(Cl)=C[C@]4(C)[C@@]3(F)[C@@H](O)C[C@]2(C)[C@@]1(O)C(=O)CO [HALOMETASONE] | > 30 µM | 
41 | C[C@@H]1C[C@H]2[C@@H]3CCC4=CC(=O)C=C[C@]4(C)[C@@]3(F)[C@@H](O)C[C@]2(C)[C@H]1C(=O)CO [DESOXIMETASONE] | > 30 µM | 
42 | CN(Cc1cc(Br)cc(Br)c1N)C1CCCCC1 [BROMHEXINE] | > 30 µM | 
43 | COc1ccc(-c2cc(=O)c3c(O)cc(O[C@@H]4O[C@H](CO[C@@H]5O[C@@H](C)[C@H](O)[C@@H](O)[C@H]5O)[C@@H](O)[C@H](O)[C@H]4O)cc3o2)cc1O [DIOSMIN] | > 30 µM | 
44 | C1N2CN3CN1CN(C2)C3 [METHENAMINE] | > 30 µM | 
45 | CC1=NN(c2ccccc2)C(=O)C1 [EDARAVONE] | 26.5 µM | 
46 | CS(=O)(=O)Nc1cc2occ(NC=O)c(=O)c2cc1Oc1ccccc1 [IGURATIMOD] | > 30 µM | AC50 [3]: > 30 µM; AC50 (Adenosine receptor A3): > 30 µM; AC50 [5]: > 30 µM
47 | Cc1nc(-c2ccc(OCC(C)C)c(C#N)c2)sc1C(=O)O [FEBUXOSTAT] | > 30 µM | 
48 | COc1ccc(CCC(C)NCC(O)c2ccc(O)c([S+](C)[O-])c2)cc1 (stereo not given) [SULFINALOL] | > 30 µM | 
